# Values quoted from earlier work in patent US8420131B2, “Composition for obesity treatment” (priority 2011, dated 2013).
# What was measured:
# [1] = test system: human white preadipocytes
# [2] = test system: lipase
# [3] = patients with PCOS
# [4] = in vivo
# [5] = in vivo; remark: listed apart in the source
# [6] = humans
# [7] = animal study
# [8] = sixty depressed patients, added to imipramine therapy
smiles,measurement,setting,value
COc1ccc2cc3[n+](cc2c1OC)CCc1cc2c(cc1-3)OCO2 [berberine],adipogenesis,[1],inhibit adipogenesis
CC(/C=C/C=C(\C)C(=O)O)=C\C=C\C=C(C)\C=C\C=C(/C)C(=O)O [crocetin],inhibition of the effect of lipase,[2],potently inhibit
same,potency compared with orlistat,dose of 50 mg/kg versus orlistat at 10 mg/kg,comparable
same,fat deposits,mice fed on a high fat diet,significantly reduced
CC(/C=C/C=C(\C)C(=O)O[C@@H]1O[C@H](CO[C@@H]2O[C@H](CO)[C@@H](O)[C@H](O)[C@H]2O)[C@@H](O)[C@H](O)[C@H]1O)=C\C=C\C=C(C)\C=C\C=C(/C)C(=O)O[C@@H]1O[C@H](CO[C@@H]2O[C@H](CO)[C@@H](O)[C@H](O)[C@H]2O)[C@@H](O)[C@H](O)[C@H]1O [crocin],inhibition of the effect of lipase,[2],potently inhibit
O[C@H]1[C@H](O)[C@@H](O)[C@H](O)[C@@H](O)[C@H]1O [inositol],action of insulin / insulin sensitivity,[3],increases the action of insulin
same,symptoms of depressed patients,[4],significant improvement
same,"decreasing the number of panic attacks, compared with fluvoxamine",[5],superior
[Mg+2] [magnesium],effectiveness in treating depression compared with imipramine,[6],as effective as imipramine
same,effect compared with imipramine,[7],comparable
[Zn] [zinc],depression scores,[8],significantly reduced
